Results from US7888380B2, “1,2,4-Triazolylaminoaryl (heteroaryl) sulfonamide derivatives” (Janssen Pharmaceutica, N.V., priority 2004, dated 2011).
Where a name gives a salt, the structure may show the parent alone. Read-outs that look alike come from different tables or passages of the source.

Tests used:
HCT-116 colon carcinoma = test: Inhibition of cell proliferation (14C-thymidine incorporation), HCT116; type: cell-based, human
Method: (§1) The ability of a test compound to inhibit the proliferation of cell growth was determined by measuring incorporation of ^14C-labelled thymidine into newly synthesized DNA within the cells. This method was used on cell lines derived from carcinomas originating from several tissues such as HeLa cervical adenocarcinoma (American Type Culture Collection (ATCC), Virginia, Cat. #CCL-2), A375 malignant melanoma (ATCC CRL-1619), and HCT-116 colon carcinoma (CCL-247). In this way the effect of a compound on cell growth of cells with many different phenotypes can be determined. Cells were trypsinized and counted and 3000-8000 cells were added to each well of a 96-well CytoStar tissue culture treated scintillating microplate (Amersham #RPNQ0160) in complete medium in a volume of 100 μl. Cells were incubated for 24 hours in complete medium at 37° C. in an atmosphere containing 5% CO2.
(§2) Next, 1 μl of test compound in 100% DMSO was added to the wells of the plate. DMSO only was added to control wells. Cells were incubated for 24 more hours in complete medium at 37° C. in an atmosphere containing 5% CO2. Methyl ^14C-thymidine 56 mCi/mmol (NEN #NEC568 or Amersham #CFA532) was diluted in complete medium and 0.2 uCi/well was added to each well of the CytoStar plate in a volume of 20 ul. The plate was incubated for 24 hours at 37° C. plus 5% CO2 in drug plus ^14C-thymidine. The contents of the plate were discarded into a ^14C radioactive waste container by inverting the plate and the plate was washed twice with 200 μl PBS.
(§3) 200 μl of PBS was added to each well. The top of the plate was sealed with a transparent plate sealer and a white plate backing sealer (Packard #6005199) was applied to the bottom of the plate. The degree of methyl ^14C-thymidine incorporation was quantified on a Packard Top Count.

[1] = tested on: HeLa cervical adenocarcinoma; test: Inhibition of cell proliferation (14C-thymidine incorporation), HeLa; type: cell-based
Method: as §1, §2, §3

VEGF-R2 kinase = biological target: T1, VEGF-R2 kinase (Rattus norvegicus, UniProt O08775); test: VEGF-R2 Kinase Screening Assay; type: biochemical; conditions: 10 μM ATP; rat VEGF-R2 kinase domain; read-out: IC50 (μM) VEGFR
T1 construct: 6xHis (polyhistidine) (N)
Method: A kinase reaction mixture was prepared containing 50 mM Tris-HCl pH=8, 10 mM MgCl2, 0.1 mM Na3PO4, 1 mM DTT, 10 μM ATP, 0.025 μM biotinylated peptide substrate and 0.8 μCuries per well ^33P-γ-ATP (2000-3000 Ci/mmol). 70 μL of the kinase reaction mixture was dispensed into each well of a streptavidin coated FlashPlate™ (Cat. # SMP103, NEN, Boston, Mass.). Then 1 μL of test compound stock in 100% DMSO was added to the wells resulting in a final concentration of 1% DMSO in the reaction with a 100 μL final reaction volume. Next, soluble rat tyrosine kinase containing an N-terminal 6×HIS tag was diluted in 50 mM Tris-HCl pH=8.0, 0.1% BSA at a concentration of 5 ng per μL and 30 μL (150 ng enzyme per test well) was added to each well to initiate the reaction. The reaction was incubated for one hour at 30° C. At the end of the 1 h incubation, the reaction was terminated by aspirating the reaction mixture from the plate and washing the wells twice with PBS containing 100 mM EDTA. The PLC1 biotinylated peptide substrate became immobilized on the Flashplate™ and the incorporation of ^33P-γ-ATP was measured by reading the plate on a scintillation counter. Inhibition of the enzymatic activity of the VEGF-R2 kinase was measured by observing a reduced amount of ^33P-γ-ATP incorporated into the immobilized peptide.
(§4) VEGF-R (vascular endothelial growth factor receptor-2) is a fusion protein containing a polyhistidine tag at the N-terminus followed by amino acids 786-1343 of the rat VEGF-R2 kinase domain (GenBank Accession #U93306). CDK1 (cyclin dependent kinase 1) was isolated from insect cells expressing both the human CDK1 catalytic subunit and its positive regulatory subunit cyclin B (New England Biolabs, Beverly, Mass., Cat. # 6020). CDK2 in complex with cyclin A is commercially available (Upstate Biotech, Lake Placid, N.Y.). The HER2 (human epidermal growth factor receptor-2) construct contains a polyhistidine tag at the N-terminus followed by 24 additional amino acids and begins at amino acid 676 followed by the remainder of the HER2 cytoplasmic domain.

A375 malignant melanoma = test: Inhibition of cell proliferation (14C-thymidine incorporation), A375; type: cell-based, human
Method: as §1, §2, §3

HER2 = biological target: T2, HER2 (Homo sapiens, UniProt P04626); test: HER2 Kinase Screening Assay; type: biochemical; conditions: 10 μM ATP; >10 or >100 = less than 50% inhibition at highest concentration tested
T2 construct: polyhistidine (N)
Method: The HER2 kinase assay was carried out as described above for the VEGF-R kinase assay except that the enzyme was replaced with a human epidermal growth factor receptor-2 (HER2) construct contains a polyhistidine tag at the N-terminus followed by 24 additional amino acids and begins at amino acid 676 (Accession #M11730) followed by the remainder of the HER2 cytoplasmic domain.
as §4

CDK1:Cyclin-B = biological target: T3, CDK1:Cyclin-B (Homo sapiens, UniProt P06493); test: CDK1 Screening Assay (33P-ATP FlashPlate); type: biochemical; conditions: 10 μM ATP; >10 or >100 = less than 50% inhibition at highest concentration tested
T3 construct: purchased New England Biolabs, Beverly, Mass; 6020; host or cells: insect cells
Method: A kinase reaction mixture was prepared containing 50 mM Tris-HCl pH=8, 10 mM MgCl2, 0.1 mM Na3PO4, 1 mM DTT, 10 μM ATP, 0.025 μM biotinylated histone-H1 peptide substrate and 0.2 μCuries per well ^33P-γ-ATP (2000-3000 Ci/mmol). 70 μL of the kinase reaction mixture was dispensed into each well of a streptavidin coated FlashPlate™ (Cat. # SMP103, NEN, Boston, Mass.). Then 1 μL of test compound stock in 100% DMSO was added to the wells resulting in a final concentration of 1% DMSO in the reaction with a 100 μl final reaction volume.
Next, CDK1:Cyclin-B protein was diluted in 50 mM Tris-HCl pH=8.0, 0.1% BSA at a concentration of 1 ng per μL and 30 μL (30 ng enzyme per test well) was added to each well to initiate the reaction. The reaction was incubated for one hour at 30° C. At the end of the 1 h incubation, the reaction was terminated by aspirating the mixture from the plate and washing the wells twice with PBS containing 100 mM EDTA. The histone-H1 biotinylated peptide substrate became immobilized on the Flashplate™ and the incorporation of ^33P-γ-ATP was measured by reading the plate on a scintillation counter. Inhibition of the enzymatic activity of CDK1 was measured by observing a reduced amount of ^33P-γ-ATP incorporated into the immobilized peptide.
as §4

T1 sequence (O08775 786-1343): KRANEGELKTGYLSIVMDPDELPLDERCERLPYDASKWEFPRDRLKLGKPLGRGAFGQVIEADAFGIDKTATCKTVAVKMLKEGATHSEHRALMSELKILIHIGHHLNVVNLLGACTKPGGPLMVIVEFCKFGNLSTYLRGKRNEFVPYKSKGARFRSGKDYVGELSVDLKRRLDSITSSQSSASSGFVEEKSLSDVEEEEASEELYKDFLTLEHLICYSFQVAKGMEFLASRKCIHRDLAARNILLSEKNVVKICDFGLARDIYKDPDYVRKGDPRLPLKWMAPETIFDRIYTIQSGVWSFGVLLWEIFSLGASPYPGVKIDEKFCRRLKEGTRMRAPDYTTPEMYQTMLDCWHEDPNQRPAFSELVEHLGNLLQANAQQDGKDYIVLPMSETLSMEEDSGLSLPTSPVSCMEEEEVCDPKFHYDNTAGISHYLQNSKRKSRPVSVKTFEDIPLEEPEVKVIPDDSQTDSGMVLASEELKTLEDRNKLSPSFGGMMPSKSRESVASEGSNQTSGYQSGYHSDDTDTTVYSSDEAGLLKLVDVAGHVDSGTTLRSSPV
T3 sequence (P06493 whole entry): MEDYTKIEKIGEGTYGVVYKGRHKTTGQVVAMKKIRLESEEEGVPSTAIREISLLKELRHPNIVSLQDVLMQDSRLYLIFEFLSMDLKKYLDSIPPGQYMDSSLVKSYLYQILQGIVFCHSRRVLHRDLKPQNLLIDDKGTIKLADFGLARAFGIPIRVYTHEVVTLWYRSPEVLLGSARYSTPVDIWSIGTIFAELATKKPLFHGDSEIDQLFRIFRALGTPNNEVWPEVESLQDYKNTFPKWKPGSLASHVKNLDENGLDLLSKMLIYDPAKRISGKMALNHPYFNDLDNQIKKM
T3 sequence (P14635 whole entry partner): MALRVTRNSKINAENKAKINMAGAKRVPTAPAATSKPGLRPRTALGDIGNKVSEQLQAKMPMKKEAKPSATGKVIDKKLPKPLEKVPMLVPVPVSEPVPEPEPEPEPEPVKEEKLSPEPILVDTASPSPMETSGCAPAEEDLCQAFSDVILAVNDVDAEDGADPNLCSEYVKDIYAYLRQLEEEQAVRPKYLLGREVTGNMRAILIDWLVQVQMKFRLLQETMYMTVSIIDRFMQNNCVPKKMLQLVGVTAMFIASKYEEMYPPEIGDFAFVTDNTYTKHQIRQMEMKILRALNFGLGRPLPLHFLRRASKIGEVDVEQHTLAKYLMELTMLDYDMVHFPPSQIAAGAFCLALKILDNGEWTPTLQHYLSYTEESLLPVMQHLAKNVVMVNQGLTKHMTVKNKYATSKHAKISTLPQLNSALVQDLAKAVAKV

IC50 (HCT-116 colon carcinoma; Homo sapiens, HCT-116) [µM] | IC50 ([1]; Homo sapiens) [µM] | IC50 (VEGF-R2 kinase) [µM] | IC50 (A375 malignant melanoma; Homo sapiens, A-375) [µM] | IC50 (HER2) [µM] | IC50 (CDK1:Cyclin-B) [µM] | Compound | IC50 (HCT-116 colon carcinoma) [µM] | IC50 [1] [µM] | IC50 (A375 malignant melanoma) [µM]
> 10 | 30.8 | 16.8 | > 10 | > 100 | 0.76 | Nc1nc(Nc2ccc(S(=O)(=O)NC(=O)COCCOCCOCC(=O)O)cc2)nn1C(=O)c1c(F)cccc1F [Compound 12, {2-[2-(2-{4-[5-amino-1-(2,6-difluoro-benzoyl)-1H-[1,2,4]triazol-3-ylamino]-benzenesulfonylamino}-2-oxo-ethoxy)-ethoxy]-ethoxy}-acetic acid.2TFA salt] | – | – | –
> 100 | 31.9 | 1.66 | 20.3 | ≥ 10 | 0.49 | Nc1nc(Nc2ccc(S(=O)(=O)NC(=O)CCC(=O)O)cc2)nn1C(=O)c1c(F)cccc1F [Compound 1, 4-{4-[5-amino-1-(2,6-difluoro-benzoyl)-1H-[1,2,4]triazol-3-ylamino]-benzenesulfonylamino}-4-oxo-butyric acid] | – | – | –
71.2 | 4.02 | 1.54 | > 10 | ≥ 10 | 1.41 | Nc1nc(Nc2ccc(S(=O)(=O)NC(=O)[C@@H](N)CO)cc2)nn1C(=O)c1c(F)cccc1F [Compound 13, 4-[5-amino-1-(2,6-difluoro-benzoyl)-1H-[1,2,4]triazol-3-ylamino]-N—((S)-2-amino-3-hydroxy-propionyl)-benzenesulfonamide] | – | – | –
37 | 14.9 | 1.97 | 9.45 | ≥ 10 | 1.07 | NCC(=O)NS(=O)(=O)c1ccc(Nc2nc(N)n(C(=O)c3c(F)cccc3F)n2)cc1 [Compound 2, N-(2-amino-acetyl)-4-[5-amino-1-(2,6-difluoro-benzoyl)-1H-[1,2,4]triazol-3-ylamino]-benzenesulfonamide] | – | – | –
> 100 | > 100 | 2.34 | > 100 | ≥ 10 | 5.39 | Nc1nc(Nc2ccc(S(=O)(=O)NC(=O)Cn3cnnn3)cc2)nn1C(=O)c1c(F)cccc1F [Compound 4, 4-[5-amino-1-(2,6-difluoro-benzoyl)-1H-[1,2,4]triazol-3-ylamino]-N-(2-tetrazol-1-yl-acetyl)-benzenesulfonamide] | – | – | –
3.94 | 10.2 | 7.31 | 26.8 | 50 | 0.23 | Nc1nc(Nc2ccc(S(=O)(=O)NC(=O)[C@@H]3CCCN3)cc2)nn1C(=O)c1c(F)cccc1F [Compound 16, 4-[5-amino-1-(2,6-difluoro-benzoyl)-1H-[1,2,4]triazol-3-ylamino]-N—((S)-pyrrolidine-2-carbonyl)-benzenesulfonamide] | – | – | –
28.4 | 58.3 | 1.56 | > 100 | 20 | 0.98 | Nc1nc(Nc2ccc(S(=O)(=O)NC(=O)[C@@H](N)CC(=O)O)cc2)nn1C(=O)c1c(F)cccc1F [Compound 17, (S)-3-amino-4-{4-[5-amino-1-(2,6-difluoro-benzoyl)-1H-[1,2,4]triazol-3-ylamino]-benzenesulfonylamino}-4-oxo-butyric acid] | – | – | –
11.6 | 6.89 | 0.77 | 24.1 | 5 | 0.28 | CCCC(=O)NS(=O)(=O)c1ccc(Nc2nc(N)n(C(=O)c3c(F)cccc3F)n2)cc1 [Compound 19, 4-[5-amino-1-(2,6-difluoro-benzoyl)-1H-[1,2,4]triazol-3-ylamino]-N-butyryl-benzenesulfonamide] | – | – | –
> 100 | > 10 | ≥ 100 | > 10 | > 100 | 4.69 | COCCOCCOCC(=O)NS(=O)(=O)c1ccc(Nc2nc(N)n(C(=O)c3c(F)cccc3F)n2)cc1 [Compound 9, 4-[5-amino-1-(2,6-difluoro-benzoyl)-1H-[1,2,4]triazol-3-ylamino]-N-{2-[2-(2-methoxy-ethoxy)-ethoxy]-acetyl}-benzenesulfonamide] | – | – | –
> 10 | > 10 | 2.56 | > 100 | ≥ 10 | 1.66 | COCCOCC(=O)NS(=O)(=O)c1ccc(Nc2nc(N)n(C(=O)c3c(F)cccc3F)n2)cc1 [Compound 3, 4-[5-amino-1-(2,6-difluoro-benzoyl)-1H-[1,2,4]triazol-3-ylamino]-N-[2-(2-methoxy-ethoxy)-acetyl]-benzenesulfonamide] | – | – | –
50.8 | 20.9 | 1.65 | > 100 | > 100 | 1.55 | Nc1nc(Nc2ccc(S(=O)(=O)NC(=O)CCN3CCOCC3)cc2)nn1C(=O)c1c(F)cccc1F [Compound 7, 4-[5-amino-1-(2,6-difluoro-benzoyl)-1H-[1,2,4]triazol-3-ylamino]-N-(3-morpholin-4-yl-propionyl)-benzenesulfonamide] | – | – | –

Compound | IC50 (HCT-116 colon carcinoma; Homo sapiens, HCT-116) [µM] | IC50 ([1]; Homo sapiens) [µM] | IC50 (VEGF-R2 kinase) [µM] | IC50 (A375 malignant melanoma; Homo sapiens, A-375) [µM] | IC50 (HER2) [µM] | IC50 (CDK1:Cyclin-B) [µM] | IC50 (HCT-116 colon carcinoma) [µM] | IC50 [1] [µM] | IC50 (A375 malignant melanoma) [µM]
4-[5-amino-1-(2,6-difluoro-benzoyl)-1H-[1,2,4]triazol-3-ylamino]-N-propionyl-benzenesulfonamide [Compound 20] | – | – | 1 | – | ≥ 10 | 1.82 | > 10 | 58.8 | > 10
